Measurements as given in ChEMBL document CHEMBL5346945, “Discovery and Optimization of the First ATP Competitive Type-III c-MET Inhibitor” (J Med Chem, 2023).

Columns and labels:
[1] = Metabolic stability in Han Wistar rat hepatocytes assessed as intrinsic clearance measured per million cells at 1 uM measured at 0.5 to 2 hrs by LC-MS/MS analysis; assay type: ADME, cell-based, Hepatocyte; conditions: time 0.5-2 hrs, read-out: CLH
[2] = Lipophilicity, logD of compound in octanol and water at pH 7.4 measured by shake-flask method; assay type: physicochemical
[3] = Metabolic stability in human liver microsomes assessed as intrinsic clearance at 1 uM preincubated with NADPH for 8 mins followed by compound addition measured at 0.5 to 30 mins by LC-MS/MS analysis; assay type: ADME, Microsome; conditions: time 0.5-30 min, read-out: CLH
[4] = molecular target: T1, Hepatocyte growth factor receptor (Homo sapiens, UniProt P08581); test: Inhibition of wild type c-MET (unknown origin) using ATP and poly(L-glutamic acid-L-tyrosine) as substrate incubated for 60 mins measured by ADP-Glo kinase assay
T1 sequence (P08581 whole entry): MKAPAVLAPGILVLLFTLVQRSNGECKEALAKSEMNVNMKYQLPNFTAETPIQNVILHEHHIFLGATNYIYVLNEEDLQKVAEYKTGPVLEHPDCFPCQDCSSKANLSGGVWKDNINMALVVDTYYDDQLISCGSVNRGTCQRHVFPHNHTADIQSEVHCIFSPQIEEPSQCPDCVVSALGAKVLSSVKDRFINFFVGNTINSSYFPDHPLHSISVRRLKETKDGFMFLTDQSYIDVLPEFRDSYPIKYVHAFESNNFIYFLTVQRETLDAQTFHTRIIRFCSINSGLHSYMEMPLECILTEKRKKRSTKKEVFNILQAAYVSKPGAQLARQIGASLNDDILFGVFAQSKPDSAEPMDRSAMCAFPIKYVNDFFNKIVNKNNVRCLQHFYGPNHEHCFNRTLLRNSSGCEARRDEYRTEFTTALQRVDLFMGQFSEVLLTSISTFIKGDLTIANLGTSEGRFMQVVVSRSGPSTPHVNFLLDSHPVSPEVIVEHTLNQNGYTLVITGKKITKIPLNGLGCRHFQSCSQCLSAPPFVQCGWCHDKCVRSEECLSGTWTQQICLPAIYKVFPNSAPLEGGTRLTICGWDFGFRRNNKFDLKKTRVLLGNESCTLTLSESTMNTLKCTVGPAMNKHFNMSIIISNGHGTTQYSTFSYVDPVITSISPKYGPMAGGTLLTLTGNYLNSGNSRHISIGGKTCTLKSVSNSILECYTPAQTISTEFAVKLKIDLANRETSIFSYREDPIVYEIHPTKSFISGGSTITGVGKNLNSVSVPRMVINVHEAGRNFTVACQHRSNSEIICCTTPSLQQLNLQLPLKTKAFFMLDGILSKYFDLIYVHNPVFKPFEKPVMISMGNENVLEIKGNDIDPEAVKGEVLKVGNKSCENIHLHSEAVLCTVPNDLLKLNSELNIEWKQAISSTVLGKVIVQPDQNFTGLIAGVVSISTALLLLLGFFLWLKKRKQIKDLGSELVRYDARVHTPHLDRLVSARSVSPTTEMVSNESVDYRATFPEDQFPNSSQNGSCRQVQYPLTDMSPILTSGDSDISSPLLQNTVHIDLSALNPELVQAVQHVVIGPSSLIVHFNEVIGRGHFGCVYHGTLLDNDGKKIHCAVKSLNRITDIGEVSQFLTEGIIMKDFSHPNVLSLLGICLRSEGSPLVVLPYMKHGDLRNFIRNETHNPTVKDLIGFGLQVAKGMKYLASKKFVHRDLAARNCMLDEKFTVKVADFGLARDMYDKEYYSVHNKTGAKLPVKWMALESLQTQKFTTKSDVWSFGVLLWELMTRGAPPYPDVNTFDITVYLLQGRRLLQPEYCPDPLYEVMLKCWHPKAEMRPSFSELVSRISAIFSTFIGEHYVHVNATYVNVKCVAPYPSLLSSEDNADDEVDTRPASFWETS

[5] = molecular target: T1, Hepatocyte growth factor receptor; conditions: dose 100.0 nM
Description: Inhibition of c-MET (unknown origin) at 100 nM relative to control

[6] = molecular target: T2, Tyrosine-protein kinase Mer (Homo sapiens) (UniProt Q12866); conditions: dose 100.0 nM
T2 sequence (whole entry): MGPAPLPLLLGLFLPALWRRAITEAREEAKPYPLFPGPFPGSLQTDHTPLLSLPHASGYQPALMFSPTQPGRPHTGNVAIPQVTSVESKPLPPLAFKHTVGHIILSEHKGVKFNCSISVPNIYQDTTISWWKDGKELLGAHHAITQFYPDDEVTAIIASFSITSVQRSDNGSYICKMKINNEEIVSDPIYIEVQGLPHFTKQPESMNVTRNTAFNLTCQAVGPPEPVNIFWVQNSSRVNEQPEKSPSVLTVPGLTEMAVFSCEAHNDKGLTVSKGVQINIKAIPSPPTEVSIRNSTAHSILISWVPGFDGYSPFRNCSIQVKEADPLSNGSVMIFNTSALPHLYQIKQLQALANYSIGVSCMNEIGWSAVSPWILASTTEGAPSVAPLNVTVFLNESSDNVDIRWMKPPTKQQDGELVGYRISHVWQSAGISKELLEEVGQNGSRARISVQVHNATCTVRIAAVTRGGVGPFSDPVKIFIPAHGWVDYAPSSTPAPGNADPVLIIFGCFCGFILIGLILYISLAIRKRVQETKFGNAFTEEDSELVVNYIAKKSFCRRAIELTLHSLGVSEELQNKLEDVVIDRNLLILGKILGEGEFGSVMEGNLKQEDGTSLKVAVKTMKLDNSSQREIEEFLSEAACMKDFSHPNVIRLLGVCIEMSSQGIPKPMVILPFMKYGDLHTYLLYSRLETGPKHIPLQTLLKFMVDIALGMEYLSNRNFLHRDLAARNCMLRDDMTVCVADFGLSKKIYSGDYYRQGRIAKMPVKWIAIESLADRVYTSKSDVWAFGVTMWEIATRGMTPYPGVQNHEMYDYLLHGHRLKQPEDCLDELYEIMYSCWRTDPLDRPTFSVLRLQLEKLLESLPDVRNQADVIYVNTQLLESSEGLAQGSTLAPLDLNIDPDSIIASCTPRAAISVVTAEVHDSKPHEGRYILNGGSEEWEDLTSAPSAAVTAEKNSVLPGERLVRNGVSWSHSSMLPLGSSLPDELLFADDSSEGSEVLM
Description: Inhibition of MERTK (unknown origin) at 100 nM relative to control

[7] = molecular target: Macrophage-stimulating protein receptor (Homo sapiens) (UniProt Q04912); conditions: dose 100.0 nM
Chain of Macrophage-stimulating protein receptor (Homo sapiens) (Q04912 25-304 limits assumed): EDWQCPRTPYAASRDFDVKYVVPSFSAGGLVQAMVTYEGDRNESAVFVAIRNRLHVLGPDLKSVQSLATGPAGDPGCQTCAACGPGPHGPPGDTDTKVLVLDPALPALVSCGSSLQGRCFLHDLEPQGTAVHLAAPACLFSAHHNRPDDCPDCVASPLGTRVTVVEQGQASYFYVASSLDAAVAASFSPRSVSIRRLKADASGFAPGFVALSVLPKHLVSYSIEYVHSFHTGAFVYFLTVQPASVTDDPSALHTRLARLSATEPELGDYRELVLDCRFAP
Chain of Macrophage-stimulating protein receptor (Homo sapiens) (Q04912 310-1400 limits assumed): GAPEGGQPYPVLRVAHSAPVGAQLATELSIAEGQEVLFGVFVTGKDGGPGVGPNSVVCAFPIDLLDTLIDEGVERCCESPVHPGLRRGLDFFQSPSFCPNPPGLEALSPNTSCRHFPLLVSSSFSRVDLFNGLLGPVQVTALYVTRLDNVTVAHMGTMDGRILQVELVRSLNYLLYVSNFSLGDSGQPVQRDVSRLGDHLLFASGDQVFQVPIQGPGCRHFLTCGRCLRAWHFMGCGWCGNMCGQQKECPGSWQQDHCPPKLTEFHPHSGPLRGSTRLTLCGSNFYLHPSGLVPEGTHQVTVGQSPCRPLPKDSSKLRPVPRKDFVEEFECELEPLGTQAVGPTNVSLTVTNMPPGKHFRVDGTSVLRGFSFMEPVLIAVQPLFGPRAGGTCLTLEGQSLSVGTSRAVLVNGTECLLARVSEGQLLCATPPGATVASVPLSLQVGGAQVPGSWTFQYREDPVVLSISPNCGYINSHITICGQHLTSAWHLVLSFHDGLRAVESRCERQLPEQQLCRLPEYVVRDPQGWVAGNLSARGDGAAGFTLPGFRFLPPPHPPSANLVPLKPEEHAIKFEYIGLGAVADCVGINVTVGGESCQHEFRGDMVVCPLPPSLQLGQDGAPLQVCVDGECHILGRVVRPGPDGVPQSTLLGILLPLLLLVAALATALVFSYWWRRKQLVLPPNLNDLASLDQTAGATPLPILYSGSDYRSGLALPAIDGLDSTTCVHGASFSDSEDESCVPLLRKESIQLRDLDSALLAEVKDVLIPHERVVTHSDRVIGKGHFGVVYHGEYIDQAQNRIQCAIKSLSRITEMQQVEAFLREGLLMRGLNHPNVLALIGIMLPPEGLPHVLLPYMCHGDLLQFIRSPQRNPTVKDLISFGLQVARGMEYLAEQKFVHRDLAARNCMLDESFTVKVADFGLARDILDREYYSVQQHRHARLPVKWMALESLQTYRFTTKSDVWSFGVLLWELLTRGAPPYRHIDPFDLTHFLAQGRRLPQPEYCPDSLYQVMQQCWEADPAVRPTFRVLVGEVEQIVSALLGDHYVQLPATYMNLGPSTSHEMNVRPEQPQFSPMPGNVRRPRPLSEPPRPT
Description: Inhibition of MST1R (unknown origin) at 100 nM relative to control

[8] = molecular target: T3, Tyrosine-protein kinase receptor TYRO3 (Homo sapiens) (UniProt Q06418); conditions: dose 100.0 nM
T3 sequence (whole entry): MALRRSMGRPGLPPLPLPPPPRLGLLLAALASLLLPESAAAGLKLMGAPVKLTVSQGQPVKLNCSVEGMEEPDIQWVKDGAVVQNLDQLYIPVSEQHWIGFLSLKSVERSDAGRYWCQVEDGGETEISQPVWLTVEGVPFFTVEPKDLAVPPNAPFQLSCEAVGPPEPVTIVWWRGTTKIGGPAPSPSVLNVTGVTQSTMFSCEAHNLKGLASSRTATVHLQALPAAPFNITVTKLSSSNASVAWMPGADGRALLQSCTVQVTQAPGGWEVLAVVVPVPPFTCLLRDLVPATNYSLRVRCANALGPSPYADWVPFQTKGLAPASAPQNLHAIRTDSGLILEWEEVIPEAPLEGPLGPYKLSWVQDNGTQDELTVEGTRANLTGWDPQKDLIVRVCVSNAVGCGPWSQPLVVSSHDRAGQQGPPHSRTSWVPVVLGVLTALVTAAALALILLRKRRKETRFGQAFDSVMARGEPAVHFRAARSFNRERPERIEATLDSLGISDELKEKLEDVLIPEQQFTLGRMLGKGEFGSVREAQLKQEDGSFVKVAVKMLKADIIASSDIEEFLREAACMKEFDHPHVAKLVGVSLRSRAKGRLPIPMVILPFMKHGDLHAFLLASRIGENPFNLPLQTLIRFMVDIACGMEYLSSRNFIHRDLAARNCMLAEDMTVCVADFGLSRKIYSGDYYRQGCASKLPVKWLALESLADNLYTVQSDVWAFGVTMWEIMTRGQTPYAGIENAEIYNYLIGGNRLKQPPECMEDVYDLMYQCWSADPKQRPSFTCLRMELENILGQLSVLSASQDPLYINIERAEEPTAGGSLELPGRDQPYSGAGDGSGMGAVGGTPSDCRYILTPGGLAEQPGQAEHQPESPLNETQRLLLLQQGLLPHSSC
Description: Inhibition of TYRO3 (unknown origin) at 100 nM relative to control

SMILES: C#Cc1n[nH]c2c(-c3cn([C@@H](C)c4ccccn4)c(=O)[nH]c3=O)cc(F)cc12
- hepatocyte CLint at 1 µM [1]: 6.07 µL/min/1e6 cells
- logD [2]: 2.7
- microsomal CLint at 1 µM [3]: 18 µL/min/mg
- IC50 [4]: 16 nM
- inhibition [5]: 80%
- inhibition [6]: 75.3%
- inhibition [7]: < 50%
- inhibition [8]: < 50%
